These are literature values, as cited in PMC9370779, “Traditional Medicinal Uses, Phytochemistry, Biological Properties, and Health Applications of Vitex sp” (Plants, 2022).

Entries after “also recorded” stand apart in the source; their conditions may differ.

Data set [1] has as its system Plasmodium falciparum. Also on record: method as in PMID 32438132.
Data set [2] has as its system LPS-stimulated NO production.
Data set [3] relates to human colorectal carcinoma (HCT-116) cells. Also on record: method as in PMID 26034885.
The test system of data set [4] is T. b rhodesiense. Also on record: method as in PMID 25886869.
Data set [5] concerns LPS-induced NO production. The arrangement: method as in PMID 31302252.

In the case of `C=CC1(C)CCC2C(C)(CCC3C(C)(C)CCCC32C)O1` (stereo not drawn) [Compound 102, 9αH-manoyl oxide], the “antimalarial activity (in words)” value in data set [1] is on record as “exhibited antimalarial activity”.
As to `COc1cc(O[C@@H]2O[C@H](COC(=O)c3ccc(O)cc3)[C@@H](O)[C@H](O)[C@H]2O)ccc1O` [Compound 158, dunnianoside D], the “antioxidant activity via ABTS radical scavenging assay” value was “Exhibited antioxidant and NO inhibitory activities”. Moreover, the “inhibitory activity on LPS-stimulated NO production” value in data set [2] was “Exhibited antioxidant and NO inhibitory activities”.
For the compound `C=C1CC(O)C2C(C)(C)CCCC2(C)C1CC(O)C1CC(=O)OC1O` (stereo not drawn) [Compound 73, vitexolide C], the “cytotoxic activity against HCT-116 cells” value in data set [3] is given as “cytotoxic activities; also recorded: Exhibited cytotoxic activity on the HCT-116 cell lines”.
Consider `COc1cc(-c2oc3cc(O)cc(O)c3c(=O)c2OC)ccc1O` [Compound 122, 2-(5′-methoxyphenyl)-4′,5,7-trihydroxy-3-methoxychromen-4-one], for which the trypanocidal activity result in data set [4] is reported as “All compounds exhibited moderate trypanocidal activity against T. b rhodesiense”.
With `CC(C)C12C=CC3(OO1)C(CCC1C(C)(C)CCCC13C)C2` (stereo not drawn) [Compound 101, abieta-11(12)-ene-9β,13β-endoperoxide], the “times more active than compound 100” value in data set [1] (Plasmodium falciparum) is reported as 54.
For the compound `CC1=C(CCC2=CCOC2=O)[C@@]2(C)CC[C@H](O[C@@H]3O[C@H](CO)[C@@H](O)[C@H](O)[C@H]3O)C(C)(C)[C@@H]2CC1` [Compound 97, (3S,5R,10S)-3-[(β-D-glucopyranosyl)oxy]-labd-8,13-dien-16,15-olide], the “inhibition of LPS-induced NO production (in words)” value in data set [5] is recorded as “strong”. Further, in data set [5] (read-out: inhibition of NO production, IC50 value), the IC50 is 40.1 ± 1.3 µM.
For “2-(3′,4′-dimethoxyphenyl)-7-hydroxychromen-4-one [Compound 125]”, the trypanocidal activity result in data set [4] is recorded as “All compounds exhibited moderate trypanocidal activity against T. b rhodesiense”.
With `C=C1CC[C@H]2C(C)(C)CCC[C@]2(C)[C@H]1CC(O)/C(C)=C/C(=O)O` (stereo partly drawn) [Compound 75, vitexolin A], the “cytotoxic activity against HCT-116 cells” value in data set [3] is “cytotoxic activities; also recorded: Exhibited cytotoxic activity on the HCT-116 cell lines”.
For `CC(C)[C@@]12C=C[C@@]3(OO1)[C@@H](CCC1C(C)(C)C[C@H](OC(=O)CC(=O)O)C[C@@]13C)C2` (stereo partly drawn) [Compound 100a], the “antimalarial activity (in words)” value in data set [1] is recorded as “exhibited antimalarial activity”.
In the case of `COc1cc(O)c2c(=O)c(OC)c(-c3ccc(O)cc3)oc2c1` [Compound 123, 2-(4′-hydroxyphenyl)-5-hydroxy-3,7-dimethoxy-chromen-4-one], the trypanocidal activity result in data set [4] was “All compounds exhibited moderate trypanocidal activity against T. b rhodesiense”.
Regarding `CC(C)C12C=CC3(OO1)C(CCC1C(C)(C)CCCC13C)C2` (stereo not drawn) [Compound 100, abieta-11(12)-ene-9α,13α-endoperoxide], the “antimalarial activity (in words)” value in data set [1] is listed as “exhibited antimalarial activity”.
Regarding `O=C(OC[C@H]1O[C@@H](Oc2ccc(O)cc2)[C@H](O)[C@@H](O)[C@@H]1O)c1ccc(O)cc1` [Compound 156, breynioside A], the “antioxidant activity via ABTS radical scavenging assay” value was “Exhibited antioxidant and NO inhibitory activities”. Also, the “inhibitory activity on LPS-stimulated NO production” value in data set [2] was “Exhibited antioxidant and NO inhibitory activities”.
In the case of `CC(C)[C@]12C=C[C@]3(OO1)[C@@H](CCC1C(C)(C)C[C@H](OC(=O)CC(=O)O)C[C@@]13C)C2` (stereo partly drawn) [Compound 101a], the “antimalarial activity (in words)” value in data set [1] is recorded as “exhibited antimalarial activity”.
As to `C=C1CC(O)C2C(C)(C)CCCC2(C)C1CC(O)C1=CC(=O)OC1O` (stereo not drawn) [Compound 72, vitexolide B], the “cytotoxic activity against HCT-116 cells” value in data set [3] is reported as “cytotoxic activities; also recorded: Exhibited cytotoxic activity on the HCT-116 cell lines”.
On to `O=c1c(O)c(-c2ccc(O)cc2)oc2cc(O)cc(O)c12` [Compound 124, 2-(4-hydroxyphenyl)-3,5,7-trihydroxychromen-4-one], for which, in data set [4], the trypanocidal activity result is listed as “All compounds exhibited moderate trypanocidal activity against T. b rhodesiense”.

In general, IC50 refers to the midpoint of a concentration-inhibition curve.
